The values below come from patent US6605589B1, “Cathepsin inhibitors in cancer treatment” (Parker Hughes Institute, priority 2000, dated 2003).

Type in all cases: cell-based, human
Experiment [1] has as its system K562 cells. The experiment is described as follows: Flow cytometric apoptosis detection in p53 deficient cells. The settings on record: K-562, p53 deficient. How it is done:
(§1) Quantitative flow cytometric apoptosis detection assays were performed on BT-20 (breast cancer), PC-3 (prostate cancer), U373 (glioblastoma), SQ20B (squamous cell carcinoma), HeLa (cervix cancer), and DU145 (prostate cancer). Just prior to the assay, one mg/ml stock solutions of MC540 (Sigma, St. Louis, Mo.) and PI (Sigma, St. Louis, Mo.) were filtered through a 0.22 μm filter and stored at 4° C. in the dark. CATI-1 treated cell lines was harvested, and 1×10^6 cells suspended and stained with 5 μg/ml MC540 and 10 μg/ml propidium iodide (PI) (Uckun et al. (1996) Science, 273: 1096-1100) at 4° C. in the dark for 24 hours. Stained cells were analyzed with a FACStar Plus flow cytometer (Becton Dickinson, San Jose, Calif.) using the 488-nm excitation from an argon laser. MC540 and PI emissions were split with a 600-nm short pass diachronic mirror; a 575-nm band pass filter was placed in front of one photomultiplier tube to measure MC540 emission, and 635-nm band pass filter was used for PI emission. In each experiment approximately 10,000 cells were analyzed by FACS and the percentage of cells at early (MC540 fluorescence only) and advanced (dual MC540 plus PI fluorescence) stages of apoptosis obtained.
(§2) Effects of CATI-1 were investigated on a lung squamous carcinoma cell line, NCI-H520 cells, and a chronic myeloid leukemia cell line, K562 cells.
A general note: A flow cytometer gives signals particle by particle.

Experiment [2] concerns NCI-H520 cells. Described as above. How it is done: as §1, §2
Experiment [3] concerns SQ20B cells. The experiment is described as follows: TUNEL assay (DNA cleavage). To be noted: 50 μM and 100 μM CATI-1, FIG. 3. How it is done: (§3) DNA cleavage as an indicator of apoptosis was determined using the in situ terminal deoxynucleotidyl transferase (TdT)-mediated dUTP nick-end-labeling method (TUNEL assay) of Boehringer Mannheim (Cell Death Detection Kit) as described in Zhu et al. (1999) Clin. Can. Res., 5:355-360. Briefly, CATI-1 treated cells and control cells were harvested and resuspended in phosphate-buffered saline (PBS) at a density of 5×10^6 cells/ml. Fifty μl of each cell suspension was placed into a PAP Pen (Zymed Laboratories Inc., South San Francisco, Calif.)-circled area on Superfrost/Plus slide (Fisher Scientific, Pittsburgh, Pa.) that was coated for cell adhesion. Cells were allowed to adhere to the slide for 10 minutes, washed with PBS and fixed with a 4% paraformadehyde in PBS solution for 20 minutes. After washing the slides twice with PBS, the cells were permeabilized by treatment with 100 μl of 20 mM SDS in PBS for 10 minutes. […] However, non-apoptotic cells incorporate only insignificant amounts of FITC-labeled dUTP due to the lack of exposed 3′-hydroxyl ends in intact DNA and consequently have much less green fluorescence than apoptotic cells. DNA bound PI emits strong red nuclear fluorescence from all the cells.

Experiment [4] relates to BT-20 cells. The experiment is described as follows: TUNEL assay (DNA cleavage). To be noted: 50 μM and 100 μM CATI-1, FIG. 3. The protocol:
as §3

Experiment [5] concerns all tested cell lines, solid and blood cell. The experiment is described as follows: In vitro clonogenic assay, all tested cell lines. The settings on record: JURKAT, KM3, DAUDI, RAJI (BAX deficient). The protocol: (§4) In vitro clonogenic assays were carried out to determine the cytotoxic activity of the cathepsin inhibitor I (CATI-1) (Z-Phe-Gly-NHO-Bz) against cancer cells. The cancer cell lines used in the assay were U373 (glioblastoma), BT-20 (breast cancer), SQ20B (squamous cell carcinoma), RS4;11 (pro-B ALL), ALL-1 (pre-pre-B ALL), KM-3, MOLT-3 (T-ALL), JURKAT (T-ALL), K-562 (CML), HL-60 (AML), DAUDI (NHL), RAMOS (NHL) and RAJI (NHL). Each cell line was treated under several concentrations of CATI-1 for 24 hours, washed with serum free medium and resuspended in clonogenic medium having 10% fetal bovine serum and 0.9% methylcellulose. Resuspended cells were plated in duplicate 35-mm Petri dishes at 10,000 to 20,000 cells per dish and cultured at 37° C. in a humidified 5% CO2 atmosphere for 5 to 7 days.
(§5) Images of colonies in each dish were taken by a digital camera (Princeton Instruments, Inc.) linked to a microscope (Nikon Diaphot 200). Colony numbers were determined using an inverted phase microscope and percent inhibition of colony formation determined using the formula:
% inhibition=(1−(colony number in test sample/colony number in control sample))×100. […]

Experiment [6] concerns U373 (glioblastoma). The experiment is described as follows: Quantitative flow cytometric apoptosis detection assay (MC540/PI). To be noted: 0 to 100 μM, FIGS. 1-3. The protocol:
as §1

Experiment [7] has as its system BT-20 (breast cancer). The experiment is described as above. The settings on record: 0 to 100 μM, FIGS. 1-3. The protocol: as §1
The test system of experiment [8] is SQ20B (squamous cell carcinoma). The experiment is described as above. The settings on record: 0 to 100 μM, FIGS. 1-3. How it is done: as §1
In experiment [9] the test system is DU145 (prostate cancer). Described as above. To be noted: 0 to 100 μM, FIGS. 1-3. The protocol: as §1
Experiment [10] deals with HeLa (cervix cancer). The experiment is described as above. The settings on record: 0 to 100 μM, FIGS. 1-3. How it is done: as §1
Experiment [11] has as its system PC-3 (prostate cancer). The description is as above. The settings on record: 0 to 100 μM, FIGS. 1-3. How it is done: as §1
Experiment [12] concerns BT-20 (breast cancer). The experiment is described as follows: In vitro clonogenic assay. The settings on record: 24 hours. How it is done: as §4, §5
% inhibition=(1−(colony number in test sample/colony number in control sample))×100.

Take `O=C(CNC(=O)[C@H](Cc1ccccc1)NC(=O)OCc1ccccc1)NOC(=O)c1ccccc1` [CATI-1, Z-Phe-Gly-NHO-Bz]: the results for the EC50 in experiment [1] and in [2] were approximately 20 µM and 55 µM, respectively. In addition, the “DNA fragmentation (TUNEL)” value in experiment [3] and in experiment [4] was “nuclear green fluorescence consistent with DNA fragmentation” each time. In addition, in experiment [5], the “susceptibility of BAX deficient cell lines to CATI-1” value is “highly susceptible”. In addition, the induction of apoptosis entry in [6], in experiment [7], in experiment [8], in [9], in [10] and in [11] was “induces apoptosis” each time. Moreover, the “%, inhibition” value in experiment [12] (CATI-1 50 uM) was 95%; in experiment [12] (CATI-1 100 uM), 100%. The “Mean no, of colonies” value in experiment [12] (CATI-1 50 uM) is 177 (154, 200); in experiment [12] (CATI-1 100 uM), 0.

For orientation: EC50 means the midpoint of the concentration-response curve. Read a high EC50 as weaker potency.
